The IC50 is the midpoint of a concentration-inhibition curve. Read a low IC50 as greater potency. The MIC90 is an inhibitory concentration at the 90% level, which refers to growth in some studies and to a panel of isolates in others. Broadly, the MIC is the lowest concentration that inhibits growth of the organism.

These results are taken from PMC13162264, “Chemoproteomic Elucidation of β‑Lactam Drug Targets in Mycobacterium abscessus” (ACS Infectious Diseases, 2026).

≈ marks a conversion by molar mass, not a printed value.

One series deals with Ldt4 (Mycobacteroides abscessus, UniProt B1MKW1). Briefly: β-lactam IC50 by drug treatment then Bocillin FL labeling, in-gel fluorescence. It is filed as binding, Mycobacterium abscessus.
Chain of Ldt4 (B1MKW1 entry or part of it): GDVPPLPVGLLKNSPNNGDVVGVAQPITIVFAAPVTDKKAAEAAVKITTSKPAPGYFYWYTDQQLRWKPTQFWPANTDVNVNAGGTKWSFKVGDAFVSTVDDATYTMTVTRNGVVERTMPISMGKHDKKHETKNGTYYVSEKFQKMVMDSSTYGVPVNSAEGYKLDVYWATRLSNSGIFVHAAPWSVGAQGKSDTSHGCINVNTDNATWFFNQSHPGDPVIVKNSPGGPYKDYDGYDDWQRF
Series [1] concerns M. abscessus subsp. massiliense (n = 754 isolates). Further details: method as in Hunkins et al. Particulars: ref Hunkins et al.; cited from earlier work.
The target of another series is MAB_0330 (Mycobacteroides abscessus, UniProt B1MFM9). Briefly: β-lactam IC50 by drug treatment then Bocillin FL labeling, in-gel fluorescence. In kind it is binding.
Chain of MAB_0330 (B1MFM9 entry or part of it): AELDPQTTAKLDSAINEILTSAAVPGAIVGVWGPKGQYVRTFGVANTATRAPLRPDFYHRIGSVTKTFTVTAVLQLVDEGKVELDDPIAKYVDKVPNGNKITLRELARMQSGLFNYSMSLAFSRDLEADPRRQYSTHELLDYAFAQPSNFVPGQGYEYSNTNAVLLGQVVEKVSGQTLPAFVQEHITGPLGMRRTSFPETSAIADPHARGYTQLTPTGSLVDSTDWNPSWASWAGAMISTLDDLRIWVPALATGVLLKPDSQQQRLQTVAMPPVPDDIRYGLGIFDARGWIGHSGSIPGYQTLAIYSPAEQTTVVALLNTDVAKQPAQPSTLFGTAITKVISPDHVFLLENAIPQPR
The subject of series [2] is M9510 (clinical strain, subsp. massiliense). Details: method as in not given. To be noted: supplemented Middlebrook 7H9 broth, reported values, ref not given; cited from earlier work.
Series [3] has as its system β-lactam targets in M9510 whole-cell lysates. Briefly: β-lactam competition of Mero-sCy5 labeling in whole-cell lysates. Particulars: drug 1 mM, then Mero-sCy5 5 μM. In kind it is binding, Mycobacterium abscessus subsp. massiliense.
The subject of series [4] is Mab 19977 (ATCC 19977, subsp. abscessus). Details: method as in not given. Particulars: supplemented Middlebrook 7H9 broth, reported values, ref not given; cited from earlier work.
In series [5] the target is Ldt4, PbpB, DacB2, and MAB_4800. Briefly: β-lactam IC50, range over the four enzymes. It is filed as binding, Mycobacterium abscessus.
For series [6], the system named is β-lactam targets in Mab 19977 whole-cell lysates. Briefly: β-lactam competition of Mero-sCy5 labeling in whole-cell lysates. In kind it is binding, Mycobacterium abscessus subsp. abscessus. To be noted: Mab 19977 lysate; drug 1 mM, then Mero-sCy5 5 μM.
The conditions of series [7]: human, in vivo; cited from earlier work.
For series [8], the system named is M9510 (clinical strain, subsp. massiliense). Kind of series: Reported MIC in supplemented Middlebrook 7H9 broth. In kind it is cell-based, Mycobacterium abscessus subsp. massiliense. To be noted: from past characterization of M9510, ref not given.
The next series has as its target MAB_4800 (Mycobacteroides abscessus, UniProt B1MM83). Briefly: β-lactam IC50 by drug treatment then Bocillin FL labeling, in-gel fluorescence. It is filed as binding.
For series [9], the system named is M. abscessus subsp. abscessus (n = 1344 isolates). Further details: method as in Hunkins et al. To be noted: ref Hunkins et al.; cited from earlier work.
For a further series, the target named is DacB2 (Mycobacteroides abscessus, UniProt B1MDJ1). Briefly: β-lactam IC50 by drug treatment then Bocillin FL labeling, in-gel fluorescence. It is filed as binding, Mycobacterium abscessus.
Chain of DacB2 (B1MDJ1 entry or part of it): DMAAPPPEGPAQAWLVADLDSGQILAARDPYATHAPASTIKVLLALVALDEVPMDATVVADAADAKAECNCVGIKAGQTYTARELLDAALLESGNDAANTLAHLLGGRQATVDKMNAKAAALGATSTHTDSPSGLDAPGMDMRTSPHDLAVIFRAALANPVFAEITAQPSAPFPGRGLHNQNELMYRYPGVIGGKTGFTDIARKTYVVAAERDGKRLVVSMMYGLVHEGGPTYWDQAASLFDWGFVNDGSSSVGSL
Another series has as its target PbpB (Mycobacteroides abscessus, UniProt B1MP31). The series is described as above. It is filed as binding.

Chain of PbpB (B1MP31 entry or part of it): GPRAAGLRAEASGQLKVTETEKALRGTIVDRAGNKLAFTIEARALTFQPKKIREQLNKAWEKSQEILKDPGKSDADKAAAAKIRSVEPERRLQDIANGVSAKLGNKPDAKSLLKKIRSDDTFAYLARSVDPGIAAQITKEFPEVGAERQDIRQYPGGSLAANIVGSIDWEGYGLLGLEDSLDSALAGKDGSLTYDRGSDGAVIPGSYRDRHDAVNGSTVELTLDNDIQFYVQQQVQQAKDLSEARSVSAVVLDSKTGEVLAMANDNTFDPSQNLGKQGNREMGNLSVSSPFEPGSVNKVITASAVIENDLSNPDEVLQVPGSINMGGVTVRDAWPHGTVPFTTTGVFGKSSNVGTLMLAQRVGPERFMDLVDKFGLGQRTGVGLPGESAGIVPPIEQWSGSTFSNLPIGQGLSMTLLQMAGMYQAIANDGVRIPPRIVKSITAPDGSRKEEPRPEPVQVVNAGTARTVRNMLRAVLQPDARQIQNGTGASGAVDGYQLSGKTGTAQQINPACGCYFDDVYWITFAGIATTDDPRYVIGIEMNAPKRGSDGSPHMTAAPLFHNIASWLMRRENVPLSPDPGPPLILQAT
Chain of MAB_4800 (B1MM83 entry or part of it): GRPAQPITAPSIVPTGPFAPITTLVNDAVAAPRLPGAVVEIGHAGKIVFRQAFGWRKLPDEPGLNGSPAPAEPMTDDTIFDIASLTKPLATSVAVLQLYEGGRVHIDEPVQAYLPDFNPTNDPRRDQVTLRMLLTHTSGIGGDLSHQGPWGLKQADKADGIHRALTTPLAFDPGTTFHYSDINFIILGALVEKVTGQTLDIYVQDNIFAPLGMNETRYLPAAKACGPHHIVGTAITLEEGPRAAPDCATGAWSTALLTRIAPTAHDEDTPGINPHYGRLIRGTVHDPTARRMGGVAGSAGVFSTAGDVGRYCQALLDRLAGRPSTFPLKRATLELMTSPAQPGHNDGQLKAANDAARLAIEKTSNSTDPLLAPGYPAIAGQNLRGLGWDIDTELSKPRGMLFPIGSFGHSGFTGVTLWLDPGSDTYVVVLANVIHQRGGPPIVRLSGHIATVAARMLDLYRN
Method for MAB_0330: Adjustment of image brightness and contrast and band intensity quantification was
performed with Fiji. Statistical comparison of mean band intensities between no
treatment and drug-treated enzymes was done using one-way ANOVA with Tukey
multiple comparison test in GraphPad Prism software.
We determined the inhibitory concentration 50 (IC50) of imipenem and cefoxitin for
PbpB, Ldt4, DacB2, and MAB_4800. We measured the IC50 by drug-treatment followed
by Bocillin FL labeling using the method described by Carlson23. Purified enzyme (0.5
μM) was treated with a range of inhibitor concentrations (.01 – 5000 µM) or buffer only
(NT) in 50 mM Tris-Cl (pH 8.0 at 4 °C), 150 mM NaCl for 30 min at 37 °C. Samples
were then incubated with 10 µM Bocillin FL for 30 min at 37 °C. Reactions were
stopped by addition of 1X TCEP SDS-PAGE loading dye and heating (5 min, 75 °C).
Technical duplicates were loaded and resolved on the same gel to standardize
background. Gels were destained of free probe overnight (30% methanol, 10% acetic
acid in water) and scanned using the Cy2 laser/emission filter on an Amersham
Typhoon imager. The experiment was repeated twice for each enzyme.
Mean band intensities were measured in ImageJ by drawing a box tightly around the
band. The inhibitor concentration versus mean band intensity was plotted and fit to a […]
GraphPad Prism software. Final values were calculated by averaging the IC50 across […]

Turning to `C[C@@H](O)[C@H]1C(=O)N2C(C(=O)O)=C(SCCN=CN)C[C@H]12` [IPM, imipenem], the IC50 at Ldt4 (IC50 (best-fit value, example analysis Figure S8), Ldt4 with IPM, one experiment, 95% CI 1.796 to 11.10, R squared 0.8570) worked out at 5.18 µM; against Ldt4 (IC50 Ldt4, 0.5 μM enzyme, drug 30 min 37 °C, then 10 µM Bocillin FL), 4 ± 2 µM; at MAB_0330, 170 µM; on MAB_4800 it was 7 ± 3 µM; against DacB2 it was 2 ± 1 µM; against PbpB, 4 ± 2 µM. The “HillSlope (best-fit value, example analysis Figure S8)” value on Ldt4 (Ldt4 with IPM, one experiment) is -1.416. The MIC90 in series [1] and in [9] was 16 µg/mL (≈ 53.4 µM) in each case. Besides, the MIC in [2] was 24 µg/mL (≈ 80.2 µM); in [4], 8 µg/mL (≈ 26.7 µM). In addition, the “inhibition of Mero-sCy5 labeling of targets in lysate” value in series [3] and in series [6] was “abolished ABP labeling” throughout. Moreover, the “IC50 for the four enzymes, in mass units” value in series [5] lay within 0.5 to 2 µg/mL. Besides, the “fCss,avg (median unbound average steady-state plasma concentration)” value in [7] was 12.2 µg/mL. In series [8], the “increased MIC in M9510 relative to 19977” value stood at 3 fold. Also, the “fold more potent inhibition of PbpB than FOX” value on PbpB (IC50 comparison IPM vs FOX) turned out to be 3 fold.
